Laboratory results taken from patent US8198317B2, “Methylenedioxy phenolic compounds and their use to treat disease” (The Ohio State University Research Foundation, priority 2008, dated 2012).
One block for each molecule: values may come before it.

How the values were obtained:
[1] = system: thoracic aorta of New Zealand White rabbits; assay: Myograph experiments on thoracic aortic rings of NZW rabbits; format: in vivo, rabbit
Experimental: Animal Model: 15 male New Zealand White rabbits (Charles River, Mass.) were fed with high fat diet (HFD) (Harlan Teklad rabbit diet with 0.5% cholesterol, TD 87251). After 4 weeks of high fat diet, rabbits were randomized into three different treatment groups, normal control (n=5), lipoic acid (100 mg/kg/day) (n=5), INV 70-65 (100 mg/kg/day) (n=5). These drugs were administered to the animals via their chow by mixing the drugs with the high fat diet. A fixed amount of chow and drugs admixed in the chow were fed to all animals every day after carefully calculating food intake in each rabbit. Drugs were dissolved in 100% ethanol and sprayed onto the diet and kept under vacuum to let ethanol evaporate overnight. Two (2) weeks after drug or control admixed HFD, all rabbits underwent aortic balloon denudation surgeries followed by 12 weeks of continued administration of drug or controls admixed with HFD. FIG. 29 provides an outline of the experimental design.
Rabbits were euthanized by injection of lethal doses of pentobarbital. The thoracic aortas were collected for the myograph studies. Two (2) mm thoracic aortic rings were suspended in individual organ chambers filled with physiological salt solution buffer (sodium chloride, 130 mEq/L; potassium chloride, 4.7 mEq/L; calcium dichloride, 1.6 mEq/L; magnesium sulfate, 1.17 mEq/L; potassium diphosphate, 1.18 mEq/L; sodium bicarbonate, 14.9 mEq/L; EDTA, 0.026 mEq/L; and glucose, 99.1 mg/dL [5.5 mmol/L]; pH, 7.4), aerated continuously with 5% carbon dioxide in oxygen at 37° C. Vessels were allowed to equilibrate for at least 1 hour at a resting tension of 30 mN before being subjected to graded doses of agonists. The vasoconstrictor agonist phenylephrine (PE) was used and responses were expressed as a percentage of the peak response to 120 mEq/L of potassium chloride. The vessels subjected to PE were washed thoroughly and allowed to equilibrate for 1 hour before beginning experiments with acetylcholine or sodium nitroprusside (SNP). […] Results for the vasodilators were expressed as a percentage of pre-contraction by PE (0.1 μM).

SREBP-2 = SREBP-2 precursor and mature form by western analysis in HepG2 cells; format: cell-based, human; conditions: HepG2, 1 hour
Experimental: FIG. 5C is a graph showing in vitro time course SREBP2 activation measured by the assessment of the mature form with INV-75 in the cytoplasm of treated cells. HepG2 cells were stimulated with INV-75 (0.1 mM) for four hours and the mature and precursor forms of SREBP2 was measured by western blot analysis. A total of three experiments were performed. *, p<0.01 by ANOVA compared to vehicle. The corresponding western blot is depicted on the right. Time is in hours on the right.
FIG. 5D is a graph showing dose dependent effects of INV-75 on SREBP2 activation assessed with mature form INV-75. HepG2 cells were stimulated with multiple concentrations of INV-75 for 1 hour and the mature and precursor forms of SREBP2 was measured by western blot analysis. A total of three experiments were performed. *, p<0.01 by ANOVA compared to vehicle. Dose of INV-75 is log molar concentration.
A family of transcription factors designated SREBP (sterol regulatory element binding proteins) regulate synthesis of cholesterol and fatty acids. […] The time course with this dose and dose dependence was analyzed. Next we assessed the expression of both precursor and mature form of SREBP-2 in the cytoplasm by western analysis. Both time course and dose dependence of mature form of SREBP-2 was analyzed.

[2] = NZW thoracic aorta, end of 12 weeks
[3] = NZW thoracic aorta, end of 12 weeks, % of pre-contraction by PE

effect on Insulin EC50 doses ([1]; NZW, in words): no effect
SMILES: O=C(CCCCC1CCSS1)Oc1ccc2c(c1)OCO2 (stereo not drawn) [INV-7065, 3,4-Methylenedioxy phenyl lipoate]
Ach LogEC50 [1, 2]: −6.67 ± 0.16 M | PE LogEC50 [1, 2]: −6.28 ± 0.08 M | SNP-1 LogEC50 [1, 2]: −7.09 ± 0.16 M | PE Maximum Effect ([1]; NZW thoracic aorta, end of 12 weeks, % of peak response to KCl): 109.1 ± 4.78 % | Ach Maximum Effect [1, 3]: −29.84 ± 2.09 % | Insulin Maximum Effect [1, 3]: −132.5 ± 14.59 % | SNP-1 Maximum Effect [1, 3]: −83.06 ± 4.95% | improving response to acetylcholine when compared to control ([1]; NZW, in words): no different than lipoic acid | relaxation to peak doses of Insulin compared to lipoic acid ([1]; NZW, in words): improved | vascular contractility to alpha receptor agonist ([1]; NZW, in words): decreases

SMILES: CC(=O)Oc1cc2c(cc1[N+](=O)[O-])OCO2 [INV-75, 3,4-methylenedioxy-6-nitrophenyl acetate]
dose having an effect in increasing the mature form of SREBP-2 (SREBP-2): ≥ 10 nM
